# Values quoted from earlier work in patent US20070042062A1, “Novel anti-diabetic herbal formulation” (COUNCIL OF SCIENTIFIC AND INDUSTRIAL RESEARCH., priority 2004, published 2007).
# How the values were obtained:
# [1] = tested on: carrageenin-induced acute oedema; details: mice
# male volunteers = tested on: male volunteers; parameters: dose or concentration left out as unconfirmed; details: for 4 weeks
# monkey = details: in vivo
# [2] = tested on: patients suffering from chronic antieri or ureitis (CAU); details: 375 mg three times a day for 12 weeks, oral; curcumin alone
structure (smiles),measurement,setting,value
"COc1cc(/C=C/C(=O)CC(=O)/C=C/c2ccc(O)c(OC)c2)ccc1O [Curcumin, curcumin]",oral ED50 against carrageenin-induced acute oedema,[1],100.2 mg/kg
same,side effect in phase-I trials,male volunteers,did not produce any side effect
same,toxicity on single or repeated oral administration,monkey,did not produce any toxicity
same,clinical outcome in CAU patients,[2],all the patients who received curcumin alone improved
